What all share (assay type): physicochemical
Data set [1] in a line: Excipient compatibility study (gelation temperature, constant 15% poloxamer 407). The following applies: change from initial. As to the method: Excipients were studied for compatibility. Constant—15% poloxamer 407 was used. The compatibility study was carried out with the following excipients: Mesalamine—6.67%; Transcutol—10%; EDTA—0.1%; Polocarbophil—0.25%+Tris—0.15%; TPGS—0.2%; NaCl—0.5%; Sodium metabisulfite—0.2%; PVA 30 CPS—1%; Kollidon 30-1%. The following lipids were investigated: DSPC—0.5%+DPCC—0.5%; Phospholipon 90G—1%; Lipoid S 100-1%; Phospholipon 90H—1%; Lecithin—1%. The following combination of poloxamer grades was also studied Poloxamer 188-1.5, 2.5 and 5%. No or marginal impact (1-2° C. from initial) was found for the following excipients: Transcutol, EDTA, TPGS, NaCl, and PVA. Moderate impact (2-5° C. from initial) was found with Mesalamine. […] No or marginal impact (1-2° C. from initial) was found in combinations with DSPC+DPCC, Phospholipon 90 G, and Lipoid S 100. […] All poloxamer combinations were stable for 28 days.

Data set [2] can be described thus: Stability of one-part formulations stored at 60° C. The conditions noted are these: after preparation of one-part formulations; oxidation in an aqueous solution.
Data set [3] is described as follows: Gelation temperature (Tg/Tgel) of diluent and reconstituted formulation, initial and on stability storage. As to the method: The target for the 2 compartment formulations: • Gelation temperature 30-37 C • Gelation time—less than 5 minutes • Reconstitution time—less than 1 minutes • Viscosity at RT—less than 3000 cps • Reconstituted formulation should be stable for at least 3 hours
To understand the reproducibility of the gelation temperature, multiple batches were prepared and stability was monitored. In addition to this in one of batch, source of Mesalamine is varied to understand its impact on the various physical parameters.
During the stability study, only gelation temperature and the pH of the reconstituted formulation was monitored.
Formulation with 2% Lipoid S 100 has been considered as the lead formula. Reproducible batches with batch size (3-4 Kg) were manufactured and stability was monitored. These batches were packed into different packaging material MoC to understand its impact on the physical properties.

We go through three molecules from US20250090552A1, “MESALAMINE PHARMACEUTICAL FORMULATIONS AND METHODS OF USE THEREOF” (Intact Therapeutics, Inc., priority 2022, published 2025).

Where only a bound is given, the exact number is not on record here.

Consider `O=S([O-])S(=O)(=O)[O-].[Na+].[Na+]` [sodium metabisulfite], for which the “impact on gelation temperature” value in data set [1] is reported as “Significant impact”. `Nc1ccc(O)c(C(=O)O)c1` [Mesalamine, 5-aminosalicylic acid]: the “time to turn brown” value in data set [2] is not above 3 days. Take `Cc1cc(C(C)(C)C)c(O)c(C(C)(C)C)c1` [BHT]: the “effect of additive on gelation temperature” value in data set [3] is reported as “lowers the gelation temperature”.
